Legend:
Format in all cases: biochemical, E. coli K12
[1] = biological target: T1, L-aspartate-α-decarboxylase (Escherichia coli, UniProt P0A790); assay: Bioconversion of 0.5M D/L-aspartate with NS3291 cells (Example 3)
T1 construct: expressed in transfected cells; host or cells: E. coli W3110 transformed with pIF309 = strain NS3291 (ATCC 98675), whole cells
Protocol: 66.5 g (0.5M) D/L-aspartate (Sigma, A-9006) was weighed into a 2 L beaker and the pH adjusted to 7.0 with 10N NaOH. The volume was brought to 963 ml with deionized H2 O. 137 ml of cells (NS 3291, described above) were added at a packed cell volume ("PCV") of 7.31 g/10 ml cells resulting in a final volume of 1.1 L. Samples (approximately 1 ml each) were removed over time, centrifuged and the supernatant fluid was analyzed by HPLC for D- and L-aspartic acid content.
(§1) In all of the Examples herein, D- and L-aspartic acid isomers were quantified by HPLC using the following precolumn derivatization method. Aspartic acid was converted into diastereomers using ortho-phthalaldehyde and N-acetyl-L-cysteine. Separation of the diastereomers was achieved on a Supelcosil™ LC-18DB, 3μ, 150×4.6 mm column using a mobile phase of A: 20% methanol/80% triethylamine phosphate and B: methanol, and a step gradient as follows: […]
Retention times were 4.19 minutes and 4.54 minutes for D-aspartic acid and L-aspartic acid, respectively.
Samples from bioconversions were centrifuged to remove cells in a microcentrifuge and the supernatant fluid diluted appropriately such that the value determined from the HPLC fell within the linear region of the standard curve. These dilutions were usually between 1:100 and 1:200, made with deionized water.

[2] = biological target: T1, L-aspartate-α-decarboxylase; assay: Re-treatment of Example 3 supernatant fluid with fresh cells (Example 4); conditions: 37° C.
Text: as §1
In this Example the supernatant fluid from Example 3 was re-treated with fresh cells. The reaction from Example 3, stopped at 68 hours, was centrifuged for 45 minutes in a GS-3 rotor at 7000 rpm. The supernatant fluid, 990 ml, was separated from the cells. 963 ml of this supernatant fluid was mixed with 137 ml fresh cells and placed in a 2 L fermentor. Bioconversion took place with mixing at 300 rpm, without automatic pH control and at a temperature of 37° C. Samples, approximately 1 ml, were removed over time and analyzed as in Example 3.

[3] = biological target: T1, L-aspartate-α-decarboxylase; assay: Activity towards D/L-glutamate and D/L-alanine, D/L-aspartate as control (Example 8); conditions: racemate substrate, pH 7.0
Protocol: D/L-aspartate was run as a control.
Substrates were prepared by dissolving solid amino acid racemate in approximately 75 ml deionized H2 O and adjusting the pH to 7.0 with 10N NaOH. The volume was then brought to 100 ml with deionized H2 O. The cells used were stored frozen for about 1 month and then thawed and stored in a refrigerator for about 1 month prior to running the experiments.
The reaction was run the same as described in the prior Examples. Samples of supernatant fluid, approximately 0.20 ml, were removed over time, centrifuged and stored frozen before analysis by HPLC as described in the prior Examples.

[4] = biological target: T1, L-aspartate-α-decarboxylase; assay: Temperature study, 50° C. (Example 9); conditions: for concentration in supernatant fluid / percent remaining: 1.0M, 100 g/l cells
Protocol: 133.1 g (1 mol) of D/L-aspartic acid was dissolved in deionized H2 O and the pH was adjusted to 7.0 with 10N NaOH, approximately 100 ml. Cells, freshly thawed from -80° C., were added to achieve a final concentration of 100 g/l. Three 2 L fermentors were each charged with 963 ml of substrate solution and 137 ml of cells and then heated to 37° C. and 45° C. while mixing at 300 rpm or heated to 50° C. while mixing at 450 rpm. Samples, approximately 1 ml, were removed over time and pH adjusted to 7.0 with either NaOH or HCl. After centrifugation to remove cells, the supernatant fluid was analyzed for both D- and L-aspartic acid.

N[C@H](CC(=O)O)C(=O)O [D-Asp, D-aspartic acid]
percent remaining ([1]; 5.5000 hr): 100.07%
percent remaining ([1]; 24.500 hr): 99.829%
percent remaining ([1]; 26.500 hr): 94.676%
percent remaining ([1]; 32.500 hr): 95.870%
percent remaining ([1]; 47.500 hr): 95.768%
percent remaining ([1]; 52.000 hr): 96.894%
percent remaining ([1]; 68.000 hr): 87.099%
concentration in supernatant fluid ([2]; 0.0000 hr): 21.450 mg/mL
concentration in supernatant fluid ([2]; 2.7500 hr): 21.350 mg/mL
percent remaining ([2]; 2.7500 hr): 99.534%
concentration in supernatant fluid ([2]; 13.500 hr): 21.190 mg/mL
percent remaining ([2]; 13.500 hr): 98.788%
concentration in supernatant fluid ([2]; 15.000 hr): 20.770 mg/mL
percent remaining ([2]; 15.000 hr): 96.830%
concentration in supernatant fluid ([2]; 19.500 hr): 21.480 mg/mL
percent remaining ([2]; 19.500 hr): 100.14%
concentration in supernatant fluid ([2]; 23.500 hr): 20.880 mg/mL
percent remaining ([2]; 23.500 hr): 97.343%
concentration in supernatant fluid ([2]; 39.000 hr): 19.080 mg/mL
percent remaining ([2]; 39.000 hr): 88.951%
concentration in supernatant fluid ([2]; 47.000 hr): 17.280 mg/mL
percent remaining ([2]; 47.000 hr): 80.559%
concentration in supernatant fluid ([2]; 51.750 hr): 17.010 mg/mL
percent remaining ([2]; 51.750 hr): 79.301%
concentration in supernatant fluid ([2]; 68.500 hr): 14.900 mg/mL
percent remaining ([2]; 68.500 hr): 69.464%
concentration in supernatant fluid ([3]; 0 hr): 29.890 mg/mL
concentration in supernatant fluid ([3]; 3.5 hr): 29.850 mg/mL
percent remaining ([3]; 3.5 hr): 99.866%
concentration in supernatant fluid ([3]; 8.5 hr): 29.900 mg/mL
percent remaining ([3]; 8.5 hr): 100.03%
concentration in supernatant fluid ([3]; 24 hr): 29.740 mg/mL
percent remaining ([3]; 24 hr): 99.498%
concentration in supernatant fluid ([3]; 55 hr): 30.120 mg/mL
percent remaining ([3]; 55 hr): 100.77%
stability of the isomer [4]: stable
concentration in supernatant fluid ([4]; 0.000 hr): 54.89 mg/mL
concentration in supernatant fluid ([4]; 1.000 hr): 54.30 mg/mL
percent remaining ([4]; 1.000 hr): 52.78%
concentration in supernatant fluid ([4]; 3.000 hr): 58.01 mg/mL
percent remaining ([4]; 3.000 hr): 40.61%
concentration in supernatant fluid ([4]; 5.0000 hr): 58.16 mg/mL
percent remaining ([4]; 5.0000 hr): 36.97%
concentration in supernatant fluid ([4]; 7.000 hr): 58.51 mg/mL
percent remaining ([4]; 7.000 hr): 35.69%
concentration in supernatant fluid ([4]; 9.000 hr): 58.88 mg/mL
percent remaining ([4]; 9.000 hr): 33.99%
concentration in supernatant fluid ([4]; 13.50 hr): 59.62 mg/mL
percent remaining ([4]; 13.50 hr): 34.19%
concentration in supernatant fluid ([4]; 23.00 hr): 56.71 mg/mL
percent remaining ([4]; 23.00 hr): 31.98%
concentration in supernatant fluid ([4]; 25.00 hr): 59.85 mg/mL
percent remaining ([4]; 25.00 hr): 31.86%
concentration in supernatant fluid ([4]; 27.00 hr): 56.87 mg/mL
percent remaining ([4]; 27.00 hr): 26.89%
concentration in supernatant fluid ([4]; 32.00 hr): 57.30 mg/mL
percent remaining ([4]; 32.00 hr): 25.85%
concentration in supernatant fluid ([4]; 37.50 hr): 58.48 mg/mL
percent remaining ([4]; 37.50 hr): 27.54%
concentration in supernatant fluid ([4]; 47.00 hr): 57.93 mg/mL
percent remaining ([4]; 47.00 hr): 25.58%
concentration in supernatant fluid ([4]; 52.00 hr): 58.74 mg/mL
percent remaining ([4]; 52.00 hr): 27.28%
concentration in supernatant fluid ([4]; 57.00 hr): 65.56 mg/mL
percent remaining ([4]; 57.00 hr): 32.42%
concentration in supernatant fluid ([4]; 71.00 hr): 57.17 mg/mL
percent remaining ([4]; 71.00 hr): 25.52%
concentration in supernatant fluid ([4]; 77.00 hr): 57.85 mg/mL
percent remaining ([4]; 77.00 hr): 25.86%
concentration in supernatant fluid ([4]; 81.00 hr): 57.41 mg/mL
percent remaining ([4]; 81.00 hr): 25.54%
concentration in supernatant fluid ([4]; 99.75 hr): 59.36 mg/mL
percent remaining ([4]; 99.75 hr): 26.14%

— patent US5834259A, “Process and composition for preparing D-aspartic acid” (Monsanto Company, priority 1996, dated 1998)
